Reference: patent US11801231B2, “Oral compositions and methods of use” (3M INNOVATIVE PROPERTIES COMPANY, priority 2017, dated 2023)

Tested on: Streptococcus mutans biofilm
Assay: Biofilm disruption test (modified MBEC assay)
Assay type: cell-based, Streptococcus mutans (ATCC 25175)
Source text: In some embodiments, disclosed compositions can prevent, inhibit, disrupt, disperse, reduce the formation or maintenance of a biofilm in an area contacted with the composition. In some embodiments, a composition can prevent, inhibit, disrupt, disperse, reduce the formation or maintenance of a biofilm in a mouth of a user where the composition was applied to the mouth when compared to a mouth without the composition applied thereto. […] Preventing, inhibiting, disrupting, dispersing, reducing, controlling, or some combination thereof the formation or maintenance of biofilms can be measured using a modified version of the MBEC assay (described in ASTM E2799), which measures disruption of Streptococcus mutans biofilms grown on special pegs in a microtiter plate. […] The biofilm remaining on each peg following treatment is quantified by measuring the amount of fluorescently labeled bacteria that eluted from the pegs at the end of the treatment cycles (see example). […] Decreasing plaque buildup can be measured by a variety of methods in vivo including for example plaque scoring, dyeing of plaque, etc.
This method utilizes the high throughput MBEC assay system (Innovotech, Calgary, AB Canada). The method evaluates efficacy of a treatment in disrupting biofilm by quantifying the amount of fluorescent-labeled biofilm remaining on MBEC inoculator pegs after exposure to relevant treatment conditions. […]

N=C(NCCCCCCNC(=N)NC(=N)Nc1ccc(Cl)cc1)NC(=N)Nc1ccc(Cl)cc1.O=C(O)[C@H](O)[C@@H](O)[C@H](O)[C@H](O)CO.O=C(O)[C@H](O)[C@@H](O)[C@H](O)[C@H](O)CO [0.1% CHG, chlorhexidine gluconate]
Normalized Relative Fluorescence (%) (normalized to PBS negative control in the same plate, low value = more biofilm disruption): 3.8% | Fluorescence intensity of Alexafluor 488-labeled S. mutans biofilm matrix (two 1-minute treatment cycles, biofilm eluted from MBEC pegs, ex 488 nm, em 525 nm): 1281 a.u.
